For 16 compounds, EC50 and inhibition results are on record in patent US10392383B2, “3-(1H-benzo[d]imidazol-2-yl)-1H-pyrazolo[4,3-b]pyridines and therapeutic uses thereof” (Samumed, LLC, priority 2015, dated 2019).

By EC50 is commonly meant the concentration giving half of the maximal effect. What is called inhibition is the share of the control response that was lost under treatment.

Test [1] concerns Wnt activity (Sp5-Luc reporter, Wnt-responsive promoter) in SW480 colon carcinoma cells. As to the kind of experiment: Wnt activity screening assay: Sp5-Luc reporter gene assay in SW480 cells. The class given is cell-based. To be noted: Homo sapiens; for EC50: overnight incubation, 10-point curve starting from 10 μM; for inhibition at 10 µM: read-out: percent inhibition at 10 μM (given for EC50 of >10 μM). The text has this: The screening assay for Wnt activity is described as follows. Reporter cell lines can be generated by stably transducing cancer cell lines (e.g., colon cancer) or primary cells (e.g., IEC-6 intestinal cells) with a lentiviral construct that includes a Wnt-responsive promoter driving expression of the firefly luciferase gene.
SW480 colon carcinoma cells were transduced with a lentiviral vector expressing luciferase with a human Sp5 promoter consisting of a sequence of eight TCF/LEF binding sites. SW480 cells stably expressing the Sp5-Luc reporter gene and a hygromycin resistance gene were selected by treatment with 150 μg/mL of hygromycin for 7 days. These stably transduced SW480 cells were expanded in cell culture and used for all further screening activities. Each compound was dissolved in DMSO as a 10 mM stock and used to prepare compound source plates. Serial dilution (1:3, 10-point dose-response curves starting from 10 μM) and compound transfer was performed using the ECHO 550 (Labcyte, Sunnyvale, Calif.) into 384-well white solid bottom assay plates (Greiner Bio-One) with appropriate DMSO backfill for a final DMSO concentration of 0.1%. For Sp5-Luc reporter gene assays, the cells were plated at 4,000 cells/well in 384-well plates with medium containing 1% fetal bovine serum and incubated overnight at 37° C. and 5% CO2. Following incubation, 20 μl of BrightGlo luminescence reagent (Promega) was added to each well of the 384-well assay plates. The plates were placed on an orbital shaker for 2 min and then luminescence was quantified using the Envision (Perkin Elmer) plate reader. Readings were normalized to DMSO only treated cells, and normalized activities were utilized for EC50 calculations using the dose-response log (inhibitor) vs. response-variable slope (four parameters) nonlinear regression feature available in GraphPad Prism 5.0 (or Dotmatics). For EC50 of >10 μM, the percent inhibition at 10 μM is provided.

Test [2] deals with primary human fibroblasts derived from IPF patients (LL29 cells) treated with TGF-β1. The test can be described thus: Inhibition of the fibrotic process: αSMA staining in TGF-β1-treated LL29 fibroblasts. Type of test: cell-based. To be noted: Fibroblast; for EC50: 96 h, LL29 fibroblasts treated with TGF-β1 (20 ng/mL), 4 days, Table 4; for inhibition at 10 µM: LL29 fibroblasts treated with TGF-β1, Table 4, read-out: percent inhibition at 10 μM (given in parentheses for EC50 >10 μM). The text has this:
Representative compounds were screened using primary human fibroblasts (derived from IPF patients) treated with TGF-β1 to determine their ability to inhibit the fibrotic process.
Human Fibroblast Cell Culture: Primary human fibroblasts derived from IPF patients (LL29 cells) [^1Xiaoqiu Liu, et. al., “Fibrotic Lung Fibroblasts Show Blunted Inhibition by cAMP Due to Deficient cAMP Response Element-Binding Protein Phosphorylation”, Journal of Pharmacology and Experimental Therapeutics (2005), 315(2), 678-687; ^2Watts, K. L., et. al., “RhoA signaling modulates cyclin D1 expression in human lung fibroblasts; implications for idiopathic pulmonary fibrosis”, Respiratory Research (2006), 7(1), 88] were obtained from American Type Culture Collection (ATCC) and expanded in F12 medium supplemented with 15% Fetal Bovine Serum and Penicillin/Streptomycin.
Compound Screening: Each compound was dissolved in DMSO as a 10 mM stock and used to prepare compound source plates. Serial dilution (1:2, 11-point dose-response curves from 10 μM to […]) and compound transfer was performed using the ECHO 550 (Labcyte, Sunnyvale, Calif.) into 384-well clear bottom assay plates (Greiner Bio-One) with appropriate DMSO backfill for a final DMSO concentration of 0.1%. LL29 cells are plated at 1,500 cells/well in 80 μL/well F12 medium supplemented with 1% Fetal Bovine Serum. One hour after addition of the cells, TGF-β1 (Peprotech; 20 ng/mL) was added to the plates to induce fibrosis (ref. 1 and 2 above). Wells treated with TGF-β1 and containing DMSO were used as controls. Cells were incubated at 37° C. and 5% CO2 for 4 days. Following incubation for 4 days, SYTOX green nucleic acid stain (Life Technologies [Thermo Fisher Scientific]) was added to the wells at a final concentration of 1 μM and incubated at room temperature for 30 min. Cells were then fixed using 4% formaldehyde (Electron Microscopy Sciences), washed 3 times with PBS followed by blocking and permeabilization using 3% Bovine Serum Albumin (BSA; Sigma) and 0.3% Triton X-100 (Sigma) in PBS. Cells were then stained with antibody specific to α-smooth muscle actin (αSMA; Abcam) (ref. 1 and 2 above) in 3% Bovine Serum Albumin (BSA; Sigma) and 0.3% Triton X-100 (Sigma) in PBS, and incubated overnight at 4° C. Cells were then washed 3 times with PBS, followed by incubation with Alexa Flor-647 conjugated secondary antibody (Life Technologies [Thermo Fisher Scientific]) and DAPI at room temperature for 1 hour. Cells were then washed 3 times with PBS and plates were sealed for imaging. αSMA staining was imaged by excitation at 630 nm and emission at 665 nm and quantified using the Compartmental Analysis program on the CellInsight CX5 (Thermo Scientific). Dead or apoptotic cells were excluded from analysis based on positive SYTOX green staining. % of total cells positive for αSMA were counted in each well and normalized to the average of 11 wells treated with TGF-β1 on the same plate using Dotmatics' Studies Software. The normalized averages (fold change over untreated) of 3 replicate wells for each compound concentration were used to create dose-responses curves and EC50 values were calculated using non-linear regression curve fit in the Dotmatics' Studies Software. For EC50 of >10 μM, the percent inhibition at 10 μM is provided.

`Fc1cccc(-c2cccc3[nH]c(-c4n[nH]c5ccc(-c6cncc(CN7CCC(F)(F)C7)c6)nc45)nc23)c1` [Compound 26, 5-(5-((3,3-Difluoropyrrolidin-1-yl)methyl)pyridin-3-yl)-3-(4-(3-fluorophenyl)-1H-benzo[d]imidazol-2-yl)-1H-pyrazolo[4,3-b]pyridine]: the EC50 in test [1] was 2100 nM; in test [2], 1650 nM.
In test [1], `CC(C)(C)C(=O)Nc1cncc(-c2ccc3[nH]nc(-c4nc5c(-c6ccc(F)cc6)cccc5[nH]4)c3n2)c1` [Compound 36, N-(5-(3-(4-(4-Fluorophenyl)-1H-benzo[d]imidazol-2-yl)-1H-pyrazolo[4,3-b]pyridin-5-yl)pyridin-3-yl)pivalamide] gave a concentration for a half-maximal effect (EC50) of 3010 nM. For the same compound, in test [2], the inhibition at 10 µM stood at 33.6% and the EC50 was > 10000 nM.
In the case of `Fc1ccc(-c2cccc3[nH]c(-c4n[nH]c5ccc(-c6cncc(CN7CCCC7)c6)nc45)nc23)cc1` [Compound 42, 3-(4-(4-Fluorophenyl)-1H-benzo[d]imidazol-2-yl)-5-(5-(pyrrolidin-1-ylmethyl)pyridin-3-yl)-1H-pyrazolo[4,3-b]pyridine], the EC50 in test [1] worked out at 1080 nM; in test [2], 3510 nM.
As to `O=C(Nc1cncc(-c2ccc3[nH]nc(-c4nc5c(-c6ccc(F)cc6)cccc5[nH]4)c3n2)c1)C1CCC1` [Compound 49, N-(5-(3-(4-(4-Fluorophenyl)-1H-benzo[d]imidazol-2-yl)-1H-pyrazolo[4,3-b]pyridin-5-yl)pyridin-3-yl)cyclobutanecarboxamide], in test [1], the inhibition at 10 µM was 28.3% and the EC50 was > 10000 nM. Also, in test [2], the inhibition at 10 µM amounted to 0% and the EC50 was > 10000 nM.
As to `Fc1ccc(-c2cccc3[nH]c(-c4n[nH]c5ccc(-c6cncnc6)nc45)nc23)cc1` [Compound 55, 3-(4-(4-Fluorophenyl)-1H-benzo[d]imidazol-2-yl)-5-(pyrimidin-5-yl)-1H-pyrazolo[4,3-b]pyridine], in test [1], the inhibition at 10 µM stood at 6.5% and the EC50 is > 10000 nM. Further, the EC50 in test [2] was determined as 3070 nM.
In the case of `Nc1cncc(-c2ccc3[nH]nc(-c4nc5c(-c6ccccc6F)cccc5[nH]4)c3n2)c1` [Compound 59, 5-(3-(4-(2-Fluorophenyl)-1H-benzo[d]imidazol-2-yl)-1H-pyrazolo[4,3-b]pyridin-5-yl)pyridin-3-amine], the EC50 was 1340 nM in test [1] and 1390 nM in test [2].
For `CC(C)C(=O)Nc1cncc(-c2ccc3[nH]nc(-c4nc5c(-c6ccccc6F)cccc5[nH]4)c3n2)c1` [Compound 65, N-(5-(3-(4-(2-fluorophenyl)-1H-benzo[d]imidazol-2-yl)-1H-pyrazolo[4,3-b]pyridin-5-yl)pyridin-3-yl)isobutyramide], in that order: 5100 nM and 4970 nM.
Consider `CC(C)(C)CC(=O)Nc1cncc(-c2ccc3[nH]nc(-c4nc5c(-c6ccccc6F)cccc5[nH]4)c3n2)c1` [Compound 72, N-(5-(3-(4-(2-Fluorophenyl)-1H-benzo[d]imidazol-2-yl)-1H-pyrazolo[4,3-b]pyridin-5-yl)pyridin-3-yl)-3,3-dimethylbutanamide], for which, in test [1], the inhibition at 10 µM is 11.6%. The EC50 in test [1] was > 10000 nM; in test [2], 2180 nM.
For `O=C(Nc1cncc(-c2ccc3[nH]nc(-c4nc5c(-c6ccccc6F)cccc5[nH]4)c3n2)c1)C1CCCC1` [Compound 78, N-(5-(3-(4-(2-Fluorophenyl)-1H-benzo[d]imidazol-2-yl)-1H-pyrazolo[4,3-b]pyridin-5-yl)pyridin-3-yl)cyclopentanecarboxamide], in that order: 29%, > 10000 nM and 2490 nM.
With `Fc1ccccc1-c1cccc2[nH]c(-c3n[nH]c4ccc(-c5cncc(CNCC6CCCC6)c5)nc34)nc12` [Compound 81, 1-Cyclopentyl-N-((5-(3-(4-(2-fluorophenyl)-1H-benzo[d]imidazol-2-yl)-1H-pyrazolo[4,3-b]pyridin-5-yl)pyridin-3-yl)methyl)methanamine], the EC50 in test [1] turned out to be 1140 nM; in test [2], 627 nM.
`c1cncc(-c2ccc3[nH]nc(-c4nc5c(-c6cccnc6)cccc5[nH]4)c3n2)c1` [Compound 88, 5-(Pyridin-3-yl)-3-(4-(pyridin-3-yl)-1H-benzo[d]imidazol-2-yl)-1H-pyrazolo [4,3-b]pyridine] yielded an EC50 in test [1] of 2620 nM. In test [2], the inhibition at 10 µM amounted to 0% and the EC50 is > 10000 nM.
For `CC(C)C(=O)Nc1cncc(-c2ccc3[nH]nc(-c4nc5c(-c6cccnc6)cccc5[nH]4)c3n2)c1` [Compound 93, N-(5-(3-(4-(Pyridin-3-yl)-1H-benzo[d]imidazol-2-yl)-1H-pyrazolo[4,3-b]pyridin-5-yl)pyridin-3-yl)isobutyramide], in that order: 3780 nM, 0% and > 10000 nM.
Turning to `CC(C)Nc1cncc(-c2ccc3[nH]nc(-c4nc5c(-c6cccnc6)cccc5[nH]4)c3n2)c1` [Compound 96, N-Isopropyl-5-(3-(4-(pyridin-3-yl)-1H-benzo[d]imidazol-2-yl)-1H-pyrazolo [4,3-b]pyridin-5-yl)pyridin-3-amine], the EC50 amounted to 2540 nM in test [1] and 1210 nM in test [2].
For `c1ccc(CNCc2cncc(-c3ccc4[nH]nc(-c5nc6c(-c7cccnc7)cccc6[nH]5)c4n3)c2)cc1` [Compound 108, N-Benzyl-1-(5-(3-(4-(pyridin-3-yl)-1H-benzo[d]imidazol-2-yl)-1H-pyrazolo [4,3-b]pyridin-5-yl)pyridin-3-yl)methanamine], in that order: 2300 nM and 2540 nM.
As to `Cc1ccncc1-c1ccc2[nH]nc(-c3nc4c(-c5ccncc5)cccc4[nH]3)c2n1` [Compound 117, 5-(4-Methylpyridin-3-yl)-3-(4-(pyridin-4-yl)-1H-benzo[d]imidazol-2-yl)-1H-pyrazolo[4,3-b]pyridine], the inhibition at 10 µM was 44.9% in test [1] and 0% in test [2]. Besides, the EC50 in test [1] and in test [2] was > 10000 nM each time.
In the case of `O=C(Cc1ccccc1)Nc1cncc(-c2ccc3[nH]nc(-c4nc5c(-c6ccncc6)cccc5[nH]4)c3n2)c1` [Compound 122, 2-Phenyl-N-(5-(3-(4-(pyridin-4-yl)-1H-benzo[d]imidazol-2-yl)-1H-pyrazolo [4,3-b]pyridin-5-yl)pyridin-3-yl)acetamide], in test [1], the inhibition at 10 µM stood at 44.4% and the EC50 was > 10000 nM. The compound also registered an EC50 in test [2] of 4970 nM.
